Experimental data taken from patent US20260216294A1, “BETA 2-ADRENERGIC RECEPTOR AGONISTS FOR TREATMENT OR PREVENTION OF MUSCLE WASTING” (ATROGI AB, priority 2023, published 2026).

Key:
L6-myotubes [1] = test: Glucose uptake in differentiated L6-myotubes (Biological Example 2); type: cell-based; settings: for Emax at 10 µM: read-out: Biological example 2 (GU)
Outline: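 Uptake was quantified as radioactivity in 0.2 M NaOH lysates after a 10 min pulse of 50 nM ^3H-2-deoxyglucose. The pulse followed two agonist exposures at 1×10^−5 M final (isoprenaline or test compound): 1 h 40 min, then 20 min in glucose-free medium after washing. L6 myotubes had been starved overnight in medium with 0.5% fatty-acid-free BSA.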

L6-myotubes [2] = test: Measurement of intracellular cAMP levels in differentiated L6-myotubes (Biological Example 3); type: cell-based; settings: for Emax at 10 µM: 0.25 h
Outline: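 Intracellular cAMP quantified by AlphaScreen after ethanol extraction and lysis of L6 myotubes. Cells were serum-starved overnight, then exposed for 15 min to compound (final 1×10^−5 M) or isoprenaline in IBMX-containing (1 mM) HBSS buffer, pH 7.4.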

[3] = glucose uptake, compound at 10 μM relative to isoproterenol at 10 μM
[4] = intracellular cAMP, compound at 10 μM relative to isoproterenol at 10 μM
[5] = glucose uptake in differentiated L6-myotubes, compound at 10 μM, activity relative to isoproterenol at 10 μM
[6] = intracellular cAMP in differentiated L6-myotubes, compound at 10 μM, activity relative to isoproterenol at 10 μM

SMILES | Emax at 10 µM (L6-myotubes [1]; [5]) | Emax at 10 µM (L6-myotubes [2]; [6]) | further results
CCC[C@@H]1CC[C@H]([C@@H](O)c2cccc(O)c2)N1 [Compound 127, m-{(S)-[(2R,5R)-5-propyl-2-pyrrolidinyl] hydroxymethyl}phenol] | – | – | Biological example 2 (GU) (L6-myotubes [1]; [3]): + (if it is between 50 and 25% it is denoted with +); Biological example 3 (CAMP) (L6-myotubes [2]; [4]): − (if it less than 25% it is denoted with −)
CC(=O)N(Cc1ccccc1)[C@H]1CC[C@@H](C[C@@H]2CC[C@H]([C@H](O)c3cccc(F)c3)N2)CC1 [Compound 480, N-[(1R,4s)-4-({(2S,5R)-5-[(R)-(m-fluorophenyl) hydroxymethyl]-2-pyrrolidinyl}methyl)cyclohexyl]-N-benzylacetamide] | < 25% | < 25% | –
CC12CC(C1)[C@@H]([C@H](O)c1cncc(F)c1)N2 [Compound 223, (R)-{(S)-1-methyl-2-azabicyclo[[2.1.1]]hex-3-yl}(5-fluoro-3-pyridyl)methanol] | 25 to 50% | < 25% | –
CC(=O)N[C@H]1CC[C@H](CC(C)(C)NC[C@H](O)c2cccnc2C)CC1 [Compound 434] | > 75% | < 25% | –
CC(C)(C)NC[C@H](O)c1cncc(O)c1 [Compound 100, 5-[(R)-2-(tert-butylamino)-1-hydroxyethyl]-3-pyridinol] | – | – | Emax at 10 µM (L6-myotubes [1]; [3]): > 75%; Emax at 10 µM (L6-myotubes [2]; [4]): < 25%
O[C@@H](c1cccc(F)c1)C12CCC(CCCc3ccccc3)(CC1)N2 [Compound 535, (S)-(m-fluorophenyl){4-(3-phenylpropyl)-7-azabicyclo[[2.2.1]]hept-1-yl}methanol] | 25 to 50% | < 25% | –
O[C@H](c1cncc(F)c1)C12CCC(CCc3ccc(OC(F)(F)F)cc3)(CC1)N2 [Compound 545, (R)-(5-fluoro-3-pyridyl){4-[2-(p-trifluoromethoxyphenyl)ethyl]-7-azabicyclo[[2.2.1]]hept-1-yl}methanol] | < 25% | < 25% | –
COc1ccc(CC23CCC([C@H](O)c4cccc(F)c4)(CC2)N3)cc1 [Compound 401, (R)-(m-fluorophenyl){4-[(p-methoxyphenyl)methyl]-7-azabicyclo[[2.2.1]]hept-1-yl}methanol] | > 75% | < 25% | –
CCCCNCC(O)c1ccc(=O)[nH]c1 (stereo not shown) [Compound 63, 5-[2-(butylamino)-1-hydroxyethyl]-2(1H)-pyridinone] | – | – | Emax at 10 µM (L6-myotubes [1]; [3]): 25 to 50%; Emax at 10 µM (L6-myotubes [2]; [4]): < 25%
CC1(C)CC[C@H]([C@@H](O)c2cncc(O)c2)N1 [Compound 166, 5-{(S)-[(R)-5,5-dimethyl-2-pyrrolidinyl] hydroxymethyl}-3-pyridinol] | – | – | Emax at 10 µM (L6-myotubes [1]; [3]): 25 to 50%; Emax at 10 µM (L6-myotubes [2]; [4]): < 25%
CCCCNC[C@H](O)c1cnc(N)nc1 [Compound 89, (R)-1-(2-amino-5-pyrimidinyl)-2-(butylamino)-1-ethanol] | – | – | Emax at 10 µM (L6-myotubes [1]; [3]): 50 to 75%; Emax at 10 µM (L6-myotubes [2]; [4]): < 25%
CC12CC(C1)[C@@H]([C@H](O)c1cccc(N)c1F)N2 [Compound 244, (R)-{(S)-1-methyl-2-azabicyclo[[2.1.1]]hex-3-yl}(3-amino-2-fluorophenyl)methanol] | 50 to 75% | < 25% | –
CC12CC(C1)[C@H]([C@@H](O)c1cccc(Cl)c1)N2 [Compound 208] | 50 to 75% | < 25% | –
CC(C)(C[C@H]1CC[C@@H](NS(=O)(=O)C(F)(F)F)CC1)NC[C@H](O)c1cncc(F)c1 [Compound 522] | > 75% | < 25% | –
CC(C)(C[C@H]1CC[C@@H](NS(C)(=O)=O)CC1)NC[C@H](O)c1cccc(C#N)n1 [Compound 422, 6-[(S)-2-{1,1-dimethyl-2-[(1s,4R)-4-(mesylamino)cyclohexyl]ethylamino}-1-hydroxyethyl]-2-pyridinecarbonitrile] | 50 to 75% | < 25% | –
COC(=O)[C@H]1CC[C@@H](CC(C)(C)NC[C@H](O)c2cccc(F)c2)CC1 [Compound 327, methyl (1S,4s)-4-{2-[(R)-2-(m-fluorophenyl)-2-hydroxyethylamino]-2-methylpropyl} cyclohexanecarboxylate] | > 75% | < 25% | –
CO[C@H]1CC[C@H](CCC(C)(C)NC[C@H](O)c2cccc(F)c2)CC1 [Compound 265, (R)-2-{1,1-dimethyl-3-[(1r,4S)-4-methoxycyclohexyl]propylamino}-1-(m-fluorophenyl)-1-ethanol] | 50 to 75% | < 25% | –
CCC[C@@H]1CC[C@H]([C@H](O)c2ccccc2Cl)N1 [Compound 148, (R)-[(2R,5R)-5-propyl-2-pyrrolidinyl](o-chlorophenyl)methanol] | – | – | Emax at 10 µM (L6-myotubes [1]; [3]): > 75%; Emax at 10 µM (L6-myotubes [2]; [4]): < 25%

SMILES | Emax at 10 µM (L6-myotubes [1]; [5]) | Emax at 10 µM (L6-myotubes [2]; [6]) | further results
CC(=O)N(C)[C@H]1CC[C@@H](CC(C)(C)NC[C@H](O)c2cncc(F)c2)CC1 [Compound 492] | – | – | Biological example 2 (GU) (L6-myotubes [1]; [5]): + (if it is between 50 and 25% it is denoted with +); Biological example 3 (CAMP) (L6-myotubes [2]; [6]): − (if it less than 25% it is denoted with −)
CC12CC(C1)[C@H]([C@H](O)c1cccc(Cl)c1)N2 [Compound 206] | > 75% | < 25% | –
CC(C)(CC[C@H]1CC[C@H](NS(C)(=O)=O)CC1)NC[C@H](O)c1cncc(F)c1 [Compound 362, (R)-2-{1,1-dimethyl-3-[(1r,4R)-4-(mesylamino)cyclohexyl]propylamino}-1-(5-fluoro-3-pyridyl)-1-ethanol] | 50 to 75% | < 25% | –
CO[C@H]1CC[C@@H](CC(C)(C)NC[C@H](O)c2cncc(F)c2)CC1 [Compound 248, (R)-2-{1,1-dimethyl-2-[(1s,4S)-4-methoxycyclohexyl]ethylamino}-1-(5-fluoro-3-pyridyl)-1-ethanol] | > 75% | < 25% | –
CCC[C@H]1CCC[C@H]([C@@H](O)c2cc(F)cc(F)c2)N1 [Compound 66] | – | – | Emax at 10 µM (L6-myotubes [1]; [3]): 25 to 50%; Emax at 10 µM (L6-myotubes [2]; [4]): < 25%
CC12CCC([C@H](O)c3cccc(Cl)c3)(CC1)N2 [Compound 197, (R)-(m-chlorophenyl)(4-methyl-7-azabicyclo[[2.2.1]]hept-1-yl)methanol] | – | – | Emax at 10 µM (L6-myotubes [1]; [3]): > 75%; Emax at 10 µM (L6-myotubes [2]; [4]): < 25%
CC(C)(C[C@H]1CC[C@H](NS(C)(=O)=O)CC1)NC[C@H](O)c1cccc(C(F)(F)F)n1 [Compound 461, (S)-2-{1,1-dimethyl-2-[(1r,4S)-4-(mesylamino)cyclohexyl]ethylamino}-1-[6-(trifluoromethyl)-2-pyridyl]-1-ethanol] | 25 to 50% | < 25% | –
CCC[C@@H]1CCC[C@@H]([C@H](O)c2cccc(F)c2)N1 [Compound 116] | – | – | Emax at 10 µM (L6-myotubes [1]; [3]): 25 to 50%; Emax at 10 µM (L6-myotubes [2]; [4]): < 25%
CC1(C)C[C@H]([C@H](O)c2ccccc2F)N1 [Compound 204, (R)-[(R)-4,4-dimethyl-2-azetidinyl](o-fluorophenyl)methanol] | > 75% | 25 to 50% | –
CO[C@H]1CC[C@H](C[C@H]2CC[C@H]([C@@H](O)c3cncc(F)c3)N2)CC1 [Compound 340, (S)-[(2R,5R)-5-{[(1r,4R)-4-methoxycyclohexyl]methyl}-2-pyrrolidinyl](5-fluoro-3-pyridyl)methanol] | 25 to 50% | < 25% | –
COc1ccc(C[C@@H]2CC[C@H]([C@@H](O)c3cncc(F)c3)N2)cc1 [Compound 377, (S)-{(2R,5S)-5-[(p-methoxyphenyl)methyl]-2-pyrrolidinyl}(5-fluoro-3-pyridyl)methanol] | > 75% | < 25% | –
CC1(C)CCC[C@@H]([C@@H](O)c2ccccc2F)N1 [Compound 192, (S)-[(S)-6,6-dimethyl-2-piperidyl](o-fluorophenyl)methanol] | – | – | Emax at 10 µM (L6-myotubes [1]; [3]): 25 to 50%; Emax at 10 µM (L6-myotubes [2]; [4]): < 25%
CC(=O)N[C@H]1CC[C@@H](C[C@@H]2CC[C@H]([C@H](O)c3cccc(F)c3)N2)CC1 [Compound 484] | 50 to 75% | < 25% | –
CO[C@H]1CC[C@@H](CNC[C@H](O)c2cccc(F)c2)CC1 [Compound 245, (R)-1-(m-fluorophenyl)-2-({[(1s,4S)-4-methoxycyclohexyl]methyl}amino)-1-ethanol] | 50 to 75% | < 25% | –
COc1ccc(C[C@H]2CC[C@H]([C@@H](O)c3cncc(F)c3)N2)cc1 [Compound 380, (S)-{(2R,5R)-5-[(p-methoxyphenyl)methyl]-2-pyrrolidinyl}(5-fluoro-3-pyridyl)methanol] | > 75% | < 25% | –
O[C@@H](CNC[C@H]1CC[C@@H](OCc2ccccc2)CC1)c1cccc(F)c1 [Compound 262, (R)-1-(m-fluorophenyl)-2-({[(1s,4S)-4-(benzyloxy)cyclohexyl]methyl}amino)-1-ethanol] | 25 to 50% | < 25% | –
CS(=O)(=O)N(Cc1ccccc1)[C@H]1CC[C@@H](C[C@@H]2CC[C@H]([C@H](O)c3cccc(F)c3)N2)CC1 [Compound 508, (R)-[(2R,5S)-5-({(1s,4R)-4-[(benzyl)-N-mesylamino]cyclohexyl}methyl)-2-pyrrolidinyl](m-fluorophenyl)methanol] | < 25% | < 25% | –
